One data set has as its system liver cancer cells. In words: Proliferation of liver cancer cells (other experiments). In kind it is cell-based.
The next data set relates to H1299 cells. Kind of data set: Transcriptome sequencing with KEGG pathway enrichment of down-regulated genes. In kind it is cell-based, human. The conditions noted are these: 1 mg/mL ATCA, 48 h, FIG. 7. The method, then: 1 mg/mL ATCA was added to the culture medium of a T75 cell culture flask filled with three million of H1299 cells as a treatment group, and an equal volume of PBS was added as a control group. After ATCA treatment for 48 h, the cultured supernatant was discarded, and the cells were placed on ice, washed twice with pre-cooled PBS. The PBS was discarded, 5 mL of pre-cooled Trizol (total RNA extraction reagent) was added, mixed by shaking thoroughly. […]

For another data set, the system named is normal cells (HBE). Kind of data set: LDH assay of cytotoxicity. To be noted: 0.5 mg/mL. In kind it is cell-based. The source says: (§1) In addition, an LDH assay was adopted to determine the cytotoxicity of ATCA and detect the cytotoxicity of the drug.
Another data set has as its system cancer cells. Kind of data set: LDH assay of cytotoxicity. In kind it is cell-based. To be noted: 0.5 mg/mL.
From the text: as §1

Another data set deals with nascent peptides. In words: Detection of nascent peptides (puromycin labelling, Western blotting). In kind it is cell-based. To be noted: 1 mg/mL, FIG. 6. The protocol:
Detection of nascent peptides: the cells were plated in a 6-well plate, with 200,000 cells in each well. After 24 h of adhesion, ATCA was added to make a working solution at a concentration of 1 mg/mL, while the control group was replaced with new medium. The experimental and control groups were treated for 2 h, 6 h, 12 h, 24 h, and 48 h separately, […], and cycloheximide was added to the positive control group for 10 min of treatment 25 min before sample collection. 10 μg/μL puromycin-labeled nascent peptide was added to all wells for 15 min, the medium was aspirated, the cells were washed twice with PBS, added with IP & WB lysis buffer to allow lysis on ice for 30 min, and centrifuged at 12,000 g for 20 min at 4° C. A resulting supernatant was transferred to a new centrifuge tube, 10 μg of protein was added to 5×SDS Loading Buffer, denatured in a 100° C. water bath for 10 min, and quantitatively detected by Western blotting. Western Blotting: the sample and molecular standard of pre-stained protein were loaded onto an SDS-PAGE gel (10 cm×10 cm) to allow electrophoresis at 100 V for 40 min. The proteins in SDS-PAGE were transferred to nitrocellulose membrane at 100 V, 230 mA within 1 h. After transfer, the nitrocellulose membrane was washed with 25 mL of TBS for 5 min at room temperature. […]

A further data set deals with normal lung cells HBE. Kind of data set: Apoptosis by Annexin V and propidium iodide staining, flow cytometry. In kind it is cell-based. To be noted: 0.5 mg/mL ATCA.
Another data set deals with SOX2. In words: Western blotting of SOX2 expression after ATCA treatment. Type of data set: cell-based. The conditions noted are these: FIG. 4. A general note: In western blotting, separated proteins are transferred to a membrane and probed.

SMILES strings stand for the structures.

Take `O=C(O)C1=CC(=C(c2ccc(O)c(C(=O)O)c2)c2ccc(O)c(C(=O)O)c2)C=CC1=O` [ATCA, aurintricarboxylic acid]: the “proliferation of liver cancer cells” value in the data set on liver cancer cells is “inhibit the proliferation”. Moreover, in the data set on H1299 cells, the “further significantly down-regulated pathways (KEGG enrichment)” value was “platinum drug-resistance, TGF-beta signaling pathway, signaling pathways regulating pluripotency of stem cells, and FoxO signaling pathway”; the “most significantly down-regulated pathway (KEGG enrichment)” value is “cell cycle”. Moreover, in the data set with normal cells (HBE), the “cytotoxicity to normal cells (LDH)” value was “did not cause obvious cytotoxicity”. Besides, the “cytotoxicity to cancer cells (LDH)” value with cancer cells was “did not cause obvious cytotoxicity”. The “protein synthesis (nascent peptides)” value in the data set on nascent peptides (2 h to 12 h after adding the drug) is listed as “had not been significantly blocked”. Besides, the “number of new peptide chains compared with that without the drug” value in the data set with nascent peptides (24 h to 48 h after adding the drug) is recorded as “significantly reduced”. Also, the “apoptosis of normal lung cells HBE” value with normal lung cells HBE was “did not show apoptosis”. In the data set with SOX2, the SOX2 expression result is “downregulation”.

For the origin of these results see patent US20250222011A1, “DRUG TARGET FOR INHIBITING TUMOR, USE, AND ORAL DRUG” (CHI BIOTECH CO., LTD., priority 2024, published 2025).
